Assay results taken from patent US9532983B2, “Benzofuran compounds, compositions, kits and/or methods thereof” (Savannah State University, priority 2013, dated 2017).
“And” between values parts separate entries of the source, which are not always exact repeats. Equal entries are not always repeated. “Also recorded” adds a separate entry of the source.

Tests used:
σ1 receptor = target: T1, σ1 receptor (Rattus norvegicus, UniProt Q9R0C9); assay: Secondary binding assay, Ki determination at σ1 receptor ([3H]pentazocine); details: rat brain homogenate, read-out: σ-1 (Ki)
T1 construct: crude membrane fractions prepared from rat brain homogenate for σ1 receptors; from tissue; host or cells: rat brain homogenate, crude membrane fraction

Alpha2C = target: T2, Alpha2C (Homo sapiens, UniProt P18825); assay: Secondary binding assay, Ki determination: Alpha2C
T2 construct: expressed in transfected cells
T2 sequence (P18825 1-462): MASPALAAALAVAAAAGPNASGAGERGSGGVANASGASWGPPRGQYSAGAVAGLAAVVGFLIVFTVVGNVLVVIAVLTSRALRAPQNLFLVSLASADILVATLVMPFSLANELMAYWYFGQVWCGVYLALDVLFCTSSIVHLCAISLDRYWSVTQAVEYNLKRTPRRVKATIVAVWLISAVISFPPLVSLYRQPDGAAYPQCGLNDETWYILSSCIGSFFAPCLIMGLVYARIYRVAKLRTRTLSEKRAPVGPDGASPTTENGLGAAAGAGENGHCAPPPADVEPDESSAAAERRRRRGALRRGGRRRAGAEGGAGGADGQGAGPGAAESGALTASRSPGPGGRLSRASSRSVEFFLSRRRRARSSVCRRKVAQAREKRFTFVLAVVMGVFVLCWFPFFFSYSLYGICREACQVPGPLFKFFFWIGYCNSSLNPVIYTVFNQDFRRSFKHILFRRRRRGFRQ

D3 = target: T3, D3 (Homo sapiens, UniProt P35462); assay: Primary binding assay at non-sigma receptors: D3; details: 10 μM (final) assay concentration
T3 construct: expressed in transfected cells
Method: (§1) Initial primary binding screening assays were performed using a 50 μM (initial)−10 μM (final) assay concentration of reference and test compounds.

M4 = target: T4, M4 (Homo sapiens, UniProt P08173); assay: Secondary binding assay, Ki determination: M4
T4 construct: expressed in transfected cells
T4 sequence (P08173 1-479): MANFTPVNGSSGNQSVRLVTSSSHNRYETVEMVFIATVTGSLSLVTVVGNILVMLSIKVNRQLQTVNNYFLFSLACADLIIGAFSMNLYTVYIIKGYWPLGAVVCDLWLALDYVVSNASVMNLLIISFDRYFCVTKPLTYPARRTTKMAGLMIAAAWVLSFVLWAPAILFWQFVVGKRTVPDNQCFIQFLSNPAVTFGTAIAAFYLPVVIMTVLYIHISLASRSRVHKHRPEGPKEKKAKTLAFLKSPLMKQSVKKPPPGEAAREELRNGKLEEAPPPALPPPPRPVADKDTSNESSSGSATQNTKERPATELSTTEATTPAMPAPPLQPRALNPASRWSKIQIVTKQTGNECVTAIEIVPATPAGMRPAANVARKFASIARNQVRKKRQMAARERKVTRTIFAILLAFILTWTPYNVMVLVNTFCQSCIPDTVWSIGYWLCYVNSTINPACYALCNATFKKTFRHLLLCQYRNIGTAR

5-HT2A = target: T5, 5-HT2A (Homo sapiens, UniProt P28223); assay: Secondary binding assay, Ki determination: 5-HT2A
T5 construct: expressed in transfected cells

Alpha2A [1] = target: T6, Alpha2A (Homo sapiens, UniProt P08913); assay: Primary binding assay at non-sigma receptors: Alpha2A; details: 10 μM (final) assay concentration
T6 construct: expressed in transfected cells
T6 sequence (P08913 1-465): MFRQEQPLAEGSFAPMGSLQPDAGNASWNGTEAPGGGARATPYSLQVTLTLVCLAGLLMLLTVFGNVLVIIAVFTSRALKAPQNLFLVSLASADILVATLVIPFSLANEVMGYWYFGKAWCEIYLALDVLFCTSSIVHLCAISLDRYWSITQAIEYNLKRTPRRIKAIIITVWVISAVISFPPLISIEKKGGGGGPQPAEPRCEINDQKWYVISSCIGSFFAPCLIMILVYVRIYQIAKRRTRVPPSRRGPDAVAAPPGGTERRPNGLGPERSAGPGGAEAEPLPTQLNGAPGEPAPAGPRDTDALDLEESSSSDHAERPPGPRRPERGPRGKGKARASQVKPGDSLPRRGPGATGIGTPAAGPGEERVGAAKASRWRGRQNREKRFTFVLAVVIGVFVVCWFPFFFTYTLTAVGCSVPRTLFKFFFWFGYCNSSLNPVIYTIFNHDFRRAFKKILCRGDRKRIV
Method: as §1

MA-10 cells = assay: Cell viability assay (MTT) in MA-10 cells; assay type: cell-based, mouse; details: 24 h, varying concentrations
Method: Mouse Leydig cell line (MA-10) was grown in Waymouth media containing 15% horse serum, 5% fetal bovine serum, and 1× gentamycin, which was replaced with […] G418 (geneticin) for VDAC1 knockdown (ΔVDAC1) MA10 cells. Cells were maintained at 37° C. in a humidified incubator under 5% CO2. To isolate mitochondria, cells were removed from tissue culture plates by gentle scrapping in phosphate-buffered saline at room temperature, incubated in hypotonic buffer (10 mM HEPES, pH 7.4) for 30 to 40 min, and mitochondria were isolated following readily available procedures. The mitochondrial preparation was verified by Western blotting with the cytochrome P450 SCC enzyme (Corgen, Tapai, Taiwan) and calnexin antibodies (Santa Cruz Biotechnology, Inc., Santa Cruz, Calif.).
Stock solutions (1 mM) of the ligands were made in 1× phosphate buffered saline, filter-sterilized, and then further diluted up to 1 μM with serum-free medium. Cell viability was determined by the 3-[4,5-dimethylthiazol-2yl]-2,5-diphenyltetrazolium bromide assay using a commercially available kit following the manufacturer's instructions (Promega, Madison, Wis.). MA-10 cells were plated in a 96-well plate at an initial density of 4×10^3 cells per well for 24 h at 37° C. in 5% CO2 atm. After 24 h of serum starvation, the culture media were changed to serum-free media containing 1, 5, 10, 50, and 100 nM concentration for each KSCM ligand. Next, the cells were incubated for 2 to 3 h with 0.5 mg/ml of 3-[4,5-dimethylthiazol-2yl]-2,5-diphenyltetrazolium bromide reagent and lysed with dimethyl sulfoxide, and the absorbance was measured at 550 nm (FlexStation 3; Molecular Devices, Sunnyvale, Calif.).

5-HT2B = target: T7, 5-HT2B (Homo sapiens, UniProt P41595); assay: Secondary binding assay, Ki determination: 5-HT2B
T7 construct: expressed in transfected cells

Alpha2A [2] = target: T6, Alpha2A; assay: Secondary binding assay, Ki determination: Alpha2A

T1 sequence (Q9R0C9 whole entry): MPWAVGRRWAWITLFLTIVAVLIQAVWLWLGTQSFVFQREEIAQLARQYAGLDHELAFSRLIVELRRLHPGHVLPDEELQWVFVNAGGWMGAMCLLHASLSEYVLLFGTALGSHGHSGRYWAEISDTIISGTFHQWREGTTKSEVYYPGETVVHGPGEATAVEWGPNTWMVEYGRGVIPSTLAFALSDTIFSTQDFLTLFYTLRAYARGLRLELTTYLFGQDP
T3 sequence (P35462 whole entry): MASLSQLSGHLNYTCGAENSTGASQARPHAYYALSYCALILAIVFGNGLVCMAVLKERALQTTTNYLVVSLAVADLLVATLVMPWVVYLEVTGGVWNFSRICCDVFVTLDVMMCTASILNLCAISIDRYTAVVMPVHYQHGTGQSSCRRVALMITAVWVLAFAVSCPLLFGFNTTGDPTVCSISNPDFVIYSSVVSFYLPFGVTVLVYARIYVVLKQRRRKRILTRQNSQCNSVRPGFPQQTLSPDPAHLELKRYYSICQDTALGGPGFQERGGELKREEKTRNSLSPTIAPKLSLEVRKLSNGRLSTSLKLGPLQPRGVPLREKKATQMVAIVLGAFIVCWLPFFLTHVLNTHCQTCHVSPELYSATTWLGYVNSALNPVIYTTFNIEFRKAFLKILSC
T5 sequence (P28223 whole entry): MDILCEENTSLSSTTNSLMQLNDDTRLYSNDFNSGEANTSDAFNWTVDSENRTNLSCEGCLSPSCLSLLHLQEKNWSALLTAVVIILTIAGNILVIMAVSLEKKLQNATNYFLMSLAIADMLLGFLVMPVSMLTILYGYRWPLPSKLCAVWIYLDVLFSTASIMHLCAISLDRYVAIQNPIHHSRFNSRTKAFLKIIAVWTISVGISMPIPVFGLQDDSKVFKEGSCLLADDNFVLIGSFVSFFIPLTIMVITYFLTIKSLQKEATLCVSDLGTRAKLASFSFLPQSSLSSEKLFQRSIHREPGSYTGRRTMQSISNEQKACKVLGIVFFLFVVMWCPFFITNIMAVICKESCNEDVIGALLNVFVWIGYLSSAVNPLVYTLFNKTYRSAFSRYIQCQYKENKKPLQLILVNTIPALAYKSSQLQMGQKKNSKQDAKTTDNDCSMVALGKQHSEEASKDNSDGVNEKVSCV
T7 sequence (P41595 whole entry, species assumed): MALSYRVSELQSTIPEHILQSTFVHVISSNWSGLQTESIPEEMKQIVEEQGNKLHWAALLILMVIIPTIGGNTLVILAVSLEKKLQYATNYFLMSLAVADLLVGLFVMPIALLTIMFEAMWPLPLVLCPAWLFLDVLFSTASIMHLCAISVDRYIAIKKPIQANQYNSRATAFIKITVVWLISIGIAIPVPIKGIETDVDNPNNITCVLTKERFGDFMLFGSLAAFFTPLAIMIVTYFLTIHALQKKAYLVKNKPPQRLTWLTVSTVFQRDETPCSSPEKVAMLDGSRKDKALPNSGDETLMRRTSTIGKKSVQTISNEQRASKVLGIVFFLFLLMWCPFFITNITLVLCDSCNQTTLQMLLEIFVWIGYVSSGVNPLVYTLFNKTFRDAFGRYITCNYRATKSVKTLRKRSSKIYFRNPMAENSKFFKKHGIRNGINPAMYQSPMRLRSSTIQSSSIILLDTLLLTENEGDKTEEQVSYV

Structure (SMILES) | Ki (σ1 receptor) | Ki (Alpha2C) | inhibition at 10 µM (D3) | Ki (M4) | Ki (5-HT2A) | inhibition at 10 µM (Alpha2A [1]) | toxicity / effect on cell viability compared among the ligands (in words) (MA-10 cells) | Ki (5-HT2B) | Ki (Alpha2A [2])
COc1cc2oc(C(=O)N(CCCN3CCCCC3)c3ccccc3)c(C)c2cc1OC [KSCM-1, 5,6-Dimethoxy-3-methyl-N-phenyl-N-(3-(piperidin-1-yl)propyl)benzofuran-2-carboxamide] | 27 nM and 27.5 nM | 1540 nM | 38.8% | 2870 nM | 2560 nM |  |  |  | 
Cc1c(C(=O)N(CCCN2CCCCC2)c2ccccc2)oc2ccccc12 [KSCM-5, 3-Methyl-N-phenyl-N-(3-(piperidin-1-yl)propyl)benzofuran-2-carboxamide] |  | 249 nM |  |  |  | 77.7% | most potent decrease in cell viability; also recorded: greatest toxicity | 936 nM | 1230 nM
COc1ccc2c(C)c(C(=O)N(CCCN3CCCCC3)c3ccccc3)oc2c1 [KSCM-11, 6-Methoxy-3-methyl-N-phenyl-N-(3-(piperidin-1-yl)propyl)benzofuran-2-carboxamide] | 34 nM |  | 40.6% |  | 2770 nM | 81.1% | greater cytotoxic effect than KSCM-1 | 204 nM | 653 nM
